In ChEMBL document CHEMBL5465560, “Selectivity Literature for EUbOPEN Chemogenomic Library” (2024):

What was measured:
[1] = molecular target: Serine/threonine-protein kinase WNK2 (Homo sapiens) (UniProt Q9Y3S1); assay: Selectivity interaction (KinomeScan (DiscoverX)) EUB0001079a WNK2; conditions: at 1 µM
[2] = molecular target: Calcium/calmodulin-dependent protein kinase type 1G (Homo sapiens) (UniProt Q96NX5); assay: Selectivity interaction (KinomeScan (DiscoverX)) EUB0000092b CAMK1G; conditions: at 10 µM
Calcium/calmodulin-dependent protein kinase type 1G (Homo sapiens), sequence (Q96NX5 whole entry): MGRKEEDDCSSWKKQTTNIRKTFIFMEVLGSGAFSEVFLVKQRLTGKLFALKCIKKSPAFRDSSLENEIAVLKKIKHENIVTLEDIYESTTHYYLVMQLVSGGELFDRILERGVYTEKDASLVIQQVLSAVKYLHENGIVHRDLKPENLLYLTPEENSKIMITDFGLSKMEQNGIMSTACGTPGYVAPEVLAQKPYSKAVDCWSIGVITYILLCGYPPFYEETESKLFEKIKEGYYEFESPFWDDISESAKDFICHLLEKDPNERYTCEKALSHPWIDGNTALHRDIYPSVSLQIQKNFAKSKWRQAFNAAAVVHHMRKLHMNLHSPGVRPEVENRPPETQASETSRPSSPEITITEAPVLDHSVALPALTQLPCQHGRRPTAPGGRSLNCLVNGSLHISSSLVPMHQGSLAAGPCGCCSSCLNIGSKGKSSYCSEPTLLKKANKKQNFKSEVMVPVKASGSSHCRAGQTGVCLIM

[3] = molecular target: 5'-AMP-activated protein kinase catalytic subunit alpha-2 (Homo sapiens) (UniProt P54646); assay: Selectivity interaction (KinomeScan (DiscoverX)) EUB0000092b PRKAA2; conditions: at 10 µM
5'-AMP-activated protein kinase catalytic subunit alpha-2 (Homo sapiens), sequence (P54646 whole entry, looked up): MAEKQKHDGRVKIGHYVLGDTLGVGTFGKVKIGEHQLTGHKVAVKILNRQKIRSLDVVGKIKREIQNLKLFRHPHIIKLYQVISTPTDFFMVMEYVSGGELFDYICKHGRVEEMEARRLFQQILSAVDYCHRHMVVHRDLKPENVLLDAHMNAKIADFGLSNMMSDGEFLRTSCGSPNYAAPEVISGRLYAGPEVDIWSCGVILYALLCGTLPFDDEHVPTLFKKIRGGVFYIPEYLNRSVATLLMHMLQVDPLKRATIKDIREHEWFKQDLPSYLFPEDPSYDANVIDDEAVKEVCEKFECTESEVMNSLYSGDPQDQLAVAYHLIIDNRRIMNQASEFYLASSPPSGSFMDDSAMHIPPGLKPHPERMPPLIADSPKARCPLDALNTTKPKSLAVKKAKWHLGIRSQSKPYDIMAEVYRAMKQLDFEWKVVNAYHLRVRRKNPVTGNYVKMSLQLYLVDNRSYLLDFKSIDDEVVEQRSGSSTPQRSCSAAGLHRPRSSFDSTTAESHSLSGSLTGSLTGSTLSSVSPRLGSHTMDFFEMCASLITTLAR

[4] = molecular target: Eukaryotic translation initiation factor 2-alpha kinase 1 (Homo sapiens) (UniProt Q9BQI3); assay: Selectivity interaction (Ambit KINOMEscan and KiNATiv profiling in Jurkat cells) EUB0000090b EIF2AK1; format: cell-based; conditions: at 1 µM
Eukaryotic translation initiation factor 2-alpha kinase 1 (Homo sapiens), sequence (Q9BQI3 whole entry): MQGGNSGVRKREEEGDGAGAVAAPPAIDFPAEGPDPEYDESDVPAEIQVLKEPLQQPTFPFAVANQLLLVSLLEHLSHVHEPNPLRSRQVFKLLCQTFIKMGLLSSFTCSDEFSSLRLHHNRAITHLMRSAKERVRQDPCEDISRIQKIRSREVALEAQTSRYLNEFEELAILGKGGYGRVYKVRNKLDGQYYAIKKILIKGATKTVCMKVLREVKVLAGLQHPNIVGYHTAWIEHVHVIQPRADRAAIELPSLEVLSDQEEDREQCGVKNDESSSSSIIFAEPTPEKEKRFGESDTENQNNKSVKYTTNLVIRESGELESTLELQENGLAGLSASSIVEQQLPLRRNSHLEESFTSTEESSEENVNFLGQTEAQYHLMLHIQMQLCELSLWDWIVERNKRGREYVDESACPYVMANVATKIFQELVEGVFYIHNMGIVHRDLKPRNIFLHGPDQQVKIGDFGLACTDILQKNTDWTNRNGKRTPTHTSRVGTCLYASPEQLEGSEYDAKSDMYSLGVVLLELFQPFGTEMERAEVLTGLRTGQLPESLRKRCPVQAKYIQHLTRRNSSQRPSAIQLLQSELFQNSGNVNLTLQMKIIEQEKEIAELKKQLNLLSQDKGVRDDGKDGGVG

[5] = molecular target: Myosin light chain kinase, smooth muscle (Homo sapiens, UniProt Q15746); assay: Selectivity interaction (KinomeScan (DiscoverX)) EUB0000045b MYLK; conditions: at 1 µM
[6] = molecular target: Ribosomal protein S6 kinase alpha-1 (Homo sapiens, UniProt Q15418); assay: Selectivity interaction (KinomeScan (DiscoverX)) EUB0000045b RPS6KA1; conditions: at 10 µM
[7] = molecular target: T1, cGMP-dependent protein kinase 2 (Homo sapiens) (UniProt Q13237); assay: Selectivity interaction (KinomeScan (DiscoverX)) EUB0000618a PRKG2; conditions: at 10 µM
T1 sequence (whole entry): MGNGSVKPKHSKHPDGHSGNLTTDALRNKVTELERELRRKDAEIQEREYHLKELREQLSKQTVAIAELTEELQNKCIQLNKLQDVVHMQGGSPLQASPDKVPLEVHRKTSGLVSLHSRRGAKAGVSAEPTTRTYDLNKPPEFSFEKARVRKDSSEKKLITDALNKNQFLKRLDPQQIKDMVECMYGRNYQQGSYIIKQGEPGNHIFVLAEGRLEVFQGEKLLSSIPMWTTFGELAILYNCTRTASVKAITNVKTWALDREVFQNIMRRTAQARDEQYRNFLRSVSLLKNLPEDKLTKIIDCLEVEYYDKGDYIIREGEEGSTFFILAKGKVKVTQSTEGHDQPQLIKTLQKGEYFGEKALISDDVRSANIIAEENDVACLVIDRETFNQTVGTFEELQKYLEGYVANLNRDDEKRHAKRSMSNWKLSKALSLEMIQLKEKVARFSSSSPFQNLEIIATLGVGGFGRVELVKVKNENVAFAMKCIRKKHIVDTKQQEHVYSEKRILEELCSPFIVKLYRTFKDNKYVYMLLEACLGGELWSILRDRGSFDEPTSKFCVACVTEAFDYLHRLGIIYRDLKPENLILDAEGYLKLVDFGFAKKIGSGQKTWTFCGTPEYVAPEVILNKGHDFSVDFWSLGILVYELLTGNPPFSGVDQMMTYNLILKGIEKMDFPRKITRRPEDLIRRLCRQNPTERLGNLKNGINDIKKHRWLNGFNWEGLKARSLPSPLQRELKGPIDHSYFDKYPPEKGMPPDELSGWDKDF

[8] = molecular target: Eukaryotic translation initiation factor 2-alpha kinase 1 (Homo sapiens) (UniProt Q9BQI3); conditions: at 10 µM
[9] = molecular target: Dual specificity mitogen-activated protein kinase kinase 1 (Homo sapiens, UniProt Q02750); assay: Selectivity interaction (ActivX KiNativ screen (ex vivo kinase selectivity in human PBMCs)) EUB0001619a MAP2K1; format: cell-based; conditions: PBMC, at 1 µM
[10] = molecular target: T2, Histone-lysine N-methyltransferase SETD7 (Homo sapiens) (UniProt Q8WTS6); assay: Selectivity interaction (Methyltransferase screen (radiometric assays, panel of 8 PRMTs, 21 protein lysine methyltransferases, 3 DNA methyltransferases, and one RNA methyltransferase)) EUB0000272b SETD7
T2 sequence (whole entry): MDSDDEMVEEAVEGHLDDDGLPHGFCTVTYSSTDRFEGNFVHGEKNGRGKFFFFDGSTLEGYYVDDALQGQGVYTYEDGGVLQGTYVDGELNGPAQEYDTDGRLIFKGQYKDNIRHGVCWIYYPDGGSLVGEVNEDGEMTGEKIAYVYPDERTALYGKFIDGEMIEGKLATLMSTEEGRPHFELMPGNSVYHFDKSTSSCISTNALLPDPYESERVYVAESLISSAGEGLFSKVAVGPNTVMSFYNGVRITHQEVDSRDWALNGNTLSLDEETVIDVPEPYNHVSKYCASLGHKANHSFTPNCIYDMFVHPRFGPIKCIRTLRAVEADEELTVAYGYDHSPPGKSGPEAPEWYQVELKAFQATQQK

[11] = molecular target: Cell division cycle 7-related protein kinase (Homo sapiens, UniProt O00311); assay: Selectivity interaction (LanthaScreen Eu Kinase Binding Assay) EUB0001632a CDC7; conditions: at 10 µM
Cell division cycle 7-related protein kinase, sequence (O00311 whole entry, looked up, canonical isoform): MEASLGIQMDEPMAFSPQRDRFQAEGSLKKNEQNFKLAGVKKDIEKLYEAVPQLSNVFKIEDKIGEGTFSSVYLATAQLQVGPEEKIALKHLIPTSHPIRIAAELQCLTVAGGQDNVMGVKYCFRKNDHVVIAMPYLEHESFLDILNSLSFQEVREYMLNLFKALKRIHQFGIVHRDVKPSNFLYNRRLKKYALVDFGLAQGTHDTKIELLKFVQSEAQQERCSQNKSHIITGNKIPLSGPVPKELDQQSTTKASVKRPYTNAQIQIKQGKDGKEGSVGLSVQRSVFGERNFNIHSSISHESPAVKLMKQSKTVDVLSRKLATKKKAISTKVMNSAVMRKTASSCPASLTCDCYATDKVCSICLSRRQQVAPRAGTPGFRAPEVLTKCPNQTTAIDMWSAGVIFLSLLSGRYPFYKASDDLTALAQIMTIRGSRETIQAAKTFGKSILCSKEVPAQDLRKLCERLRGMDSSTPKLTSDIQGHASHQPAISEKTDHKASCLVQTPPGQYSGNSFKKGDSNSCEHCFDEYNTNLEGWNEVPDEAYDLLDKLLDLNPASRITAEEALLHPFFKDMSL

[12] = molecular target: Casein kinase I isoform gamma-1 (Homo sapiens) (UniProt Q9HCP0); assay: Selectivity interaction (ProQinase) EUB0000171b CSNK1G1
Casein kinase I isoform gamma-1 (Homo sapiens), sequence (Q9HCP0 whole entry, looked up, canonical isoform): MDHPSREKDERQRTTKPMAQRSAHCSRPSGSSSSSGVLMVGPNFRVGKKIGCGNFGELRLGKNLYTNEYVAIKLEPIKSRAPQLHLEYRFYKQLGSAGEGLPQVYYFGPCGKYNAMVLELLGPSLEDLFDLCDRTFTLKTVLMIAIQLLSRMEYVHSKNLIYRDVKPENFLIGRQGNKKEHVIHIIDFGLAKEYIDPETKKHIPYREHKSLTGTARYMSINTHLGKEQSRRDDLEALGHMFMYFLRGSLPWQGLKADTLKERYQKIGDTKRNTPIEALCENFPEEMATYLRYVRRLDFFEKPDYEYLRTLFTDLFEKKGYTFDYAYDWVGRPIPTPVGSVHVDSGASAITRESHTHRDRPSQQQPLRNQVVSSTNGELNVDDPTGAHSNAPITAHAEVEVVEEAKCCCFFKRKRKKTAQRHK

Serine/threonine-protein kinase WNK2 (Homo sapiens), sequence (Q9Y3S1 whole entry): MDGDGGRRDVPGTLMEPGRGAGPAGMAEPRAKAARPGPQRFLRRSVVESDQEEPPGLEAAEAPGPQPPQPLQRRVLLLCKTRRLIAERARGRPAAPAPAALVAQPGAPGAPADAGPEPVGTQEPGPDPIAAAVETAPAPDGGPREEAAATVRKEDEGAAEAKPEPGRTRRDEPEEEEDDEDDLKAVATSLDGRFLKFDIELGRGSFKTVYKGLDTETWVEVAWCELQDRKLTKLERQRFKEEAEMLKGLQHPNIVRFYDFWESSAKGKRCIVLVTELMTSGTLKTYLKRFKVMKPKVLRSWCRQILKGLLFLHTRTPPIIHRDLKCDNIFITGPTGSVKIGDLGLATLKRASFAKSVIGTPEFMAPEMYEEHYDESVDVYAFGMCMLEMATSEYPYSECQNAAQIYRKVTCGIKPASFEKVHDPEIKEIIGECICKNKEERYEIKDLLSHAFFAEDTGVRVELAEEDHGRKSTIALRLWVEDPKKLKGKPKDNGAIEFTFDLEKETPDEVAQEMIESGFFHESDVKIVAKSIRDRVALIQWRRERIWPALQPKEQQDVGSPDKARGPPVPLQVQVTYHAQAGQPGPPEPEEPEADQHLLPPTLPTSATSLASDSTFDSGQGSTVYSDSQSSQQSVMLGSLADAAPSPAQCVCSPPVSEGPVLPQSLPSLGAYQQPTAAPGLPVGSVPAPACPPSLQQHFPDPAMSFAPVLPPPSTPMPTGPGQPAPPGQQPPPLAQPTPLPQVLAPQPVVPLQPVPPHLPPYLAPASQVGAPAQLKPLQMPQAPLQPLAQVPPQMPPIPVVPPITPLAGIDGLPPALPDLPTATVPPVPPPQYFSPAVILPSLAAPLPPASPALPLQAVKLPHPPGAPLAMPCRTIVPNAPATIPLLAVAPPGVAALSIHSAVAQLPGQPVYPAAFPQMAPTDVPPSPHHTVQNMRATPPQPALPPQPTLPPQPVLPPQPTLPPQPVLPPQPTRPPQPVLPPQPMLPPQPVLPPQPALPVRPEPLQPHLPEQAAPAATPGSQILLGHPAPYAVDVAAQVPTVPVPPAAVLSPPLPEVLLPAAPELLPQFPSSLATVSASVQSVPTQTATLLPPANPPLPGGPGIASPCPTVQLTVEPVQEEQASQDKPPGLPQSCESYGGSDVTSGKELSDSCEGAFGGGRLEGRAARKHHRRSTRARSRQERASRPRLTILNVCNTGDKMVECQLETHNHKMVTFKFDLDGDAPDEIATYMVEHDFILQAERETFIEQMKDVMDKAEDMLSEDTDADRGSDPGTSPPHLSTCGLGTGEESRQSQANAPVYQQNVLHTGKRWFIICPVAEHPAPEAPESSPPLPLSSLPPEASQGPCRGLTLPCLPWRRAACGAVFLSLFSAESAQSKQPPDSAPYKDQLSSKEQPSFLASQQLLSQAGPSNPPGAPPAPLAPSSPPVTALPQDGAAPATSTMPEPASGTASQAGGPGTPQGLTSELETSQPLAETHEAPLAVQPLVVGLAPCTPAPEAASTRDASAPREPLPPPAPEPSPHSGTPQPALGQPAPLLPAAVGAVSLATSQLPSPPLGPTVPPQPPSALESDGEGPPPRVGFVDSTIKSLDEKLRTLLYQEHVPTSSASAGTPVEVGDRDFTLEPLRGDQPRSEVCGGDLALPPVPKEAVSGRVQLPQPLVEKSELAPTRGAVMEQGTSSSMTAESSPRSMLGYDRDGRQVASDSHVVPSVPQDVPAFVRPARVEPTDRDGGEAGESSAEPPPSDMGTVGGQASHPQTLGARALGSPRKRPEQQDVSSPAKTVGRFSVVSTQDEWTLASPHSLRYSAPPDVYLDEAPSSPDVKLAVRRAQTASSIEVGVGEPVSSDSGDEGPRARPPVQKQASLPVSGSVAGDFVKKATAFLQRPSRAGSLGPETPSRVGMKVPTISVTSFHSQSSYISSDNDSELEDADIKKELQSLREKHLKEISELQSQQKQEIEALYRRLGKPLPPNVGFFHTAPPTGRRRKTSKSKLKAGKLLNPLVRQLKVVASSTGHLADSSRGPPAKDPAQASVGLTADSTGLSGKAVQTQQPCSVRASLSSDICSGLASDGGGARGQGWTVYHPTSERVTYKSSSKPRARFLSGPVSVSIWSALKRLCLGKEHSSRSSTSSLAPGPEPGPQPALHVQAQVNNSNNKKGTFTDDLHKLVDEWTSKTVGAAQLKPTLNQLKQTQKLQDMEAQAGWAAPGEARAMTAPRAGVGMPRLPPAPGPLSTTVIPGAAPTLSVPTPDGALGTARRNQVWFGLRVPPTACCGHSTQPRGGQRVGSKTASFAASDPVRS

Structure (SMILES): Nc1cnc(N2CCc3cc(S(=O)(=O)Nc4c(F)cc(Cl)cc4F)cc(N4CCCC4=O)c32)nc1 [TP-020n]
- % of control [1]: 100%

Structure (SMILES): CCC(=O)N1CCN(c2ccc(-n3c(=O)ccc4cnc5ccc(-c6cnc7ccccc7c6)cc5c43)cc2C(F)(F)F)CC1
- % of control [2]: 74%
- % of control [3]: 74%

Structure (SMILES): CN(C)C/C=C/C(=O)Nc1ccc(C(=O)N2CCCC(Nc3ncc(Cl)c(-c4c[nH]c5ccccc45)n3)C2)cc1 (centres undefined)
- % of control [4]: 84%

Structure (SMILES): C=CC(=O)Nc1cc(-n2c(=O)ccc3cnc4ccc(-c5ccc(NS(C)(=O)=O)cc5)cc4c32)ccc1C
- % of control [5]: 100%
- % of control [6]: 78%

Structure (SMILES): O[C@H]1CC[C@H](Nc2ncc3nc(Nc4c(F)cc(F)cc4F)n([C@H]4CCOC4)c3n2)CC1
- % of control [7]: 100%

Structure (SMILES): Cc1cc([C@@H](C)Nc2ccccc2C(=O)O)c2nc(N3CCOCC3)cc(=O)n2c1 [AZD-6482]
- % of control [8]: 97%

Structure (SMILES): N#Cc1cccc(-c2c[nH]c3ncnc(N4CCOCC4)c23)c1
- % of inhibition [9]: 6%

Structure (SMILES): Cc1cc(C)cc([C@H]2c3cc(C)ccc3NC(=O)CN2C(=O)c2ccc(Br)s2)c1
- % of activity ([10]; at 1 µM): 101%
- % of activity ([10]; at 10 µM): 99%

Structure (SMILES): Cn1cc(-n2cnc3c(NCc4nc5cc(Cl)c(Cl)cc5[nH]4)nc(N4CCOCC4)nc32)cn1
- % of inhibition [11]: -5.05%

Structure (SMILES): C=CC(=O)Nc1cccc(C(=O)Nc2ccc(Nc3cc(-c4[nH]c(SC)nc4C)ccn3)cc2)c1
- % of control ([12]; at 1 µM): 65%
- % of control ([12]; at 5 µM): 31%
